Reference: article PMC7509987 (Biochemistry, 2020)
Read-outs that look alike come from different tables or passages of the source.

Legend:
GPX = conditions: great excess of 4-hydroxynonenal (1 mM); cited from earlier work
DmTrxR-CCS [1] = target: T1, DmTrxR-CCS (Drosophila melanogaster, UniProt P91938); test: NADPH-pre-reduced enzyme; format: biochemical; conditions: n = 3
Target sequence in this assay (P91938 106-596): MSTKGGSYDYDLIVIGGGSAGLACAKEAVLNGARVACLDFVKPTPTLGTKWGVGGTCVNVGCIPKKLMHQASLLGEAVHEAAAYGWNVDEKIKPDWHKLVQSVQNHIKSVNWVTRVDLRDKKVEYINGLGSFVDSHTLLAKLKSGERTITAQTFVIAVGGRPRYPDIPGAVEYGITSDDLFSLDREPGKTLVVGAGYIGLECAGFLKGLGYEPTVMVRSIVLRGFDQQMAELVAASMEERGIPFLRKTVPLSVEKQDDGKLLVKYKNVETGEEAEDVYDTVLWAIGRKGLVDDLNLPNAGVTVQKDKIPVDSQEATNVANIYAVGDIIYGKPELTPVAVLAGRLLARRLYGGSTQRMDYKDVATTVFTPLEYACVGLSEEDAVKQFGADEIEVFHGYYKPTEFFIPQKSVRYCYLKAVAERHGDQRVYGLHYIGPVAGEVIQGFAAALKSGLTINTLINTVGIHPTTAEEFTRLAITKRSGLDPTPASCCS

DmTrxR-CCS [2] = target: T1, DmTrxR-CCS; test: Inhibition of Trx-reductase activity by electrophiles; format: biochemical, D. melanogaster; conditions: 7 μM acrolein, pH 7, 10 min, 22 °C
Target sequence in this assay (P91938 1-491 isoform P91938-2): as the sequence (P91938 106-596) above, with S2A, T3P, K4V, G5Q counted along it

mTrxR-C(αMe)UG [3] = target: mTrxR-C(αMe)UG (Mus musculus, UniProt Q9JLT4); test: as above; format: biochemical
mTrxR-CUG = mTrxR-CUG (Mus musculus, UniProt Q9JLT4); test: as above; format: biochemical
[4] = Solubility in aqueous solutions; format: physicochemical
mTrxR-C(αMe)UG [5] = format: biochemical; conditions: read-out: KM (μM), Table 3, DTNB as substrate; n = 3
mTrxR-C(αMe)UG [6] = format: biochemical; conditions: read-out: KM (μM), Table 4, selenocysteamine as substrate; n = 3

mTrxR-C(αMe)UG (Mus musculus, UniProt Q9JLT4), sequence (Q9JLT4 35-524): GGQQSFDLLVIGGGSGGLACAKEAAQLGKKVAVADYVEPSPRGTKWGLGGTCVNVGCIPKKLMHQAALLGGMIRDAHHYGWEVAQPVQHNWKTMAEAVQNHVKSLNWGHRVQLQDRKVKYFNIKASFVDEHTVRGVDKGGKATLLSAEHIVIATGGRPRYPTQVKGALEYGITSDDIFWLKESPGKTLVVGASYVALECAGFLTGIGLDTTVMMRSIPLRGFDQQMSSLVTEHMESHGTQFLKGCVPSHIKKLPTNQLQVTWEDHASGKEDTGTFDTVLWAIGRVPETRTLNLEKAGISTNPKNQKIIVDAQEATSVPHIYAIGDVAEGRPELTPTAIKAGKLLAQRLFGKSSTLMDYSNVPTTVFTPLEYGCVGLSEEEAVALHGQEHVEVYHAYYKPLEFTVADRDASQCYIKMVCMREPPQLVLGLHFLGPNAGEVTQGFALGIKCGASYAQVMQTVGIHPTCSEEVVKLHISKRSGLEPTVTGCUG
mTrxR-CUG, sequence (Q9JLT4 35-524): as above

CCCCCC(O)/C=C/C=O (stereo not drawn) [4-Hydroxynonenal, 4-hydroxynonenal]
inhibition of GPX (GPX): could not be completely inhibited

C=CC=O [Acrolein, acrolein (prop-2-enal)]
IC50 (DmTrxR-CCS [1]): 7 µM

C=CC=O [Acrolein, acrolein]
inhibition of Trx-reductase activity (DmTrxR-CCS [2]): 75-85%
inhibition of Trx-reductase activity (mTrxR-C(αMe)UG [3]; 800 nM acrolein, pH 5.5, 10 min, 22 °C): 75-85%
inhibition of Trx-reductase activity (mTrxR-CUG; 2.5 μM acrolein, pH 4.6, 10 min, 22 °C): 75-85%

O=C/C=C/c1ccccc1 [Cinnamaldehyde]
IC50 (mTrxR-C(αMe)UG [3]): 230 µM
IC50 (mTrxR-CUG): 225 µM

COc1cc(/C=C/C(=O)CC(=O)/C=C/c2ccc(O)c(OC)c2)ccc1O [Curcumin, curcumin]
Trx-reductase activity remains (mTrxR-C(αMe)UG [3]; at 100 uM curcumin, mutant mTrxR): ~ 65%
solubility [4]: ≤ 100 µM
IC50 (mTrxR-CUG): 34 µM

O=C(O)c1cc(SSc2ccc([N+](=O)[O-])c(C(=O)O)c2)ccc1[N+](=O)[O-] [DTNB, 5,5′-dithiobis(2-nitrobenzoic acid)]
Km (mTrxR-C(αMe)UG [5]): 5 ± 0.9 µM

NCC[Se][Se]CCN [selenocysteamine, selenocysteamine (diselenide, used as dichloride; selenocystamine)]
Km (mTrxR-C(αMe)UG [6]): 92 ± 0.9 µM
